System: Z-138 cells
Assay: In vitro cell activity, Z-138 cells, CellTiter-Glo
Assay type: cell-based
Conditions: Z-138, 168 h, human mantle cell lymphoma cells, 7 days
Protocol: Test compounds: the compounds of the present invention prepared in the above example. Each compound was formulated into a 10 mM stock solution with DMSO, and finally diluted into 8 concentrations for detection, with the final concentrations being 33333.00 nM, 6666.60 nM, 1333.32 nM, 266.66 nM, 53.33 nM, 10.67 nM, 2.13 nM, and 0.43 nM for experiments in Z-138 cells.
2.1.1 Z-138 cell thawing: The cryovial for Z-138 cells was taken out from a liquid nitrogen tank and placed in a 37° C. water bath, and shaken gently for thawing as soon as possible. After thawing, the cryovial was taken out, and sterilized with an alcohol cotton ball, after which the cap was unscrewed. The cell fluid was drawn and injected into a centrifuge tube. 1 mL of complete medium containing 10% horse serum was added, and mixed uniformly. The tube was placed in a centrifuge, and centrifuged at 1000 rpm for 5 min. Afterwards, the supernatant was discarded, and complete medium was added. The mixture was pipetted repeatedly until the cells were completely dispersed and resuspended. The mixture was inoculated in a petri dish at an appropriate concentration, and cultured in a CO2 incubator at 37° C., 5% CO2, and 95% humidified air.
2.2.1 Z-138 cell culture and passage: The cells grew to about 80-90%. The medium (IMDM medium+10% horse serum+1% penicillin-streptomycin) was transferred to a 15 mL centrifuge tube, and centrifuged at 1000 rpm for 5 min. The supernatant was removed. The cells were resuspended in complete medium, and inoculated in a petri dish at the desired density. The dish was placed in an incubator at 37° C., 5% CO2, and 95% humid air. The culture medium was replenished every 2-3 days or the passage was carried out, depending on the cell growth.
After passage, Z-138 cells were resuspended in complete medium at a density of 1000 cells/well and inoculated in a 96-well culture plate. The 36 wells at the outer circumference of the 96-well plate were filled with 200 μL of PBS to prevent the culture conditions of the inner plate wells from being too different from each other due to the faster evaporation of medium at the edge. The leftmost column of the 60 inner wells were blank wells, which were not added with cells, but filled with equal volume of PBS. The remaining 54 wells were subjected to cell plating with a multichannel pipette, to each well was added 100 μL of culture medium containing corresponding cells. After cell plating was finished, the 96-well plate was tapped to make the cells evenly suspended, and placed in a 5% CO2 incubator and cultured at 37° C. for 24 h.
For Z-138 cells, in addition to the original medium (100 μL), 50 μL (3×) of drug was added, and duplicate wells were set for each concentration group. The plate was placed in a CO2 incubator and further cultured for 7 days. […]

Structure (SMILES)	IC50 [nM]
CC(=O)N1CCC(Nc2cc(C(=O)NC[C@H](O)CN3CCc4ccccc4C3)ncn2)CC1 [Compound A, (S)-6-((1-Acetylpiperidin-4-yl)amino)-N-(3-(3,4-dihydroisoquinolin-2(1H)-yl)-2-hydroxypropyl)pyrimidine-4-carboxamide]	19.5
CC(=O)N1CCC(Nc2ccc3c(c2)C(=O)N(C[C@H](O)CN2CCc4ccccc4C2)CC32CC2)CC1 [Compound B, (R)-7′-((1-Acetylpiperidin-4-yl)amino)-2′-(3-(3,4-dihydroisoquinolin-2(1H)-yl)-2-hydroxypropyl)-2′,3′-dihydro-1′H-spiro[cyclopropane-1,4′-isoquinolin]-1′-one, reference compound]	4.33
CC(=O)N1CCC(Nc2cc3c(cn2)C2(CC2)CN(C[C@H](O)CN2CCc4ccccc4C2)C3=O)CC1 [Example 1, (R)-7′-((1-acetylpiperidin-4-yl)amino)-2′-(3-(3,4-dihydroisoquinolin-2(1H)-yl)-2-hydroxypropyl)-2′,3′-dihydro-1′H-spiro[cyclopropane-1,4′-[2,6]naphthyridin]-1′-one]	3.07
CC(=O)N1CC2(CC(Nc3cc4c(cn3)C3(CC3)CN(C[C@H](O)CN3CCc5ccccc5C3)C4=O)C2)C1 [Example 2, (R)-7′-((2-acetyl-2-azaspiro[3.3]hept-6-yl)amino)-2′-(3-(3,4-dihydroisoquinolin-2(1H)-yl)-2-hydroxypropyl)-2′,3′-dihydro-1′H-spiro[cyclopropane-1,4′-[2,6]naphthyridin]-1-one]	2.2

Reference: patent publication US20240116918A1, “SUBSTITUTED TRICYCLIC COMPOUND AS PRMT5 INHIBITOR AND USE THEREOF” (NANJING SANHOME PHARMACEUTICAL CO., LTD., priority 2019, published 2024)
